According to article PMC6405875 (Scientific Reports, 2019):

Experiments:
[1] = biological target: T1, WT hDAT (Homo sapiens, UniProt Q01959); test: [3H]DA uptake in PC12 cells transfected with WT hDAT; type: cell-based
T1 construct: expressed in transfected cells; host or cells: rat PC12 cells (ATCC CRL-1721), pcDNA3.1+
Procedure: (§1) In the current study, we used rat pheochromocytoma cells (PC12 cells, CRL-1721, American Type Culture Collection (ATCC), Manassas, VA), which were maintained in Dulbecco’s modified eagle medium (DMEM, Life Technologies, Carlsbad, CA) supplemented with 15% horse serum, 2.5% bovine calf serum, 2 mM glutamine and antibiotics, 100 U/mL penicillin and 100 µg/mL streptomycin. Cells were cultured at 37 °C in a 5% CO2 incubator. Once cells were growing to 100% confluence on plates, cells were seeded at a density of 1 × 10^5 cells/cm^2 in 24-well plates and transfected with WT hDAT or mutants by Lipofectamine 2000 (Life Technologies). Twenty-four hours after transfection, intact cells or cell suspensions were used for experiments.
(§2) Twenty-four hours after transfection, cells in 24-well plates were washed twice with Krebs-Ringer-HEPES (KRH) buffer (final concentration in mM: 125 NaCl, 5 KCl, 1.5 MgSO4, 1.25 CaCl2, 1.5 KH2PO4, 10 D-glucose, 25 HEPES, 0.1 EDTA, 0.1 pargyline, and 0.1 L-ascorbic acid; pH 7.4) and incubated with nomifensine (10 µM, final concentration) as nonspecific uptake for 10 min at room temperature. […] The reaction was terminated by removal of solution from wells and quickly washed three times with ice cold KRH buffer. Cells were then lysed in 500 μL of 1% SDS for an hour and radioactivity was measured using a liquid scintillation counter (Tri-Carb 2900TR; PerkinElmer Life and Analytical Sciences, Waltham, MA).
(§3) In brief, cells were dissociated with trypsin/EDTA (0.25%/0.1%, 1 mL for one 10 cm dish) and resuspended in culture medium and incubated at room temperature for 10 min. The dissociated cells were collected by centrifugation at 400 × g for 5 min at 4 °C and washed once with phosphate-buffered saline followed by additional 5 min centrifugation (400 × g, 4 °C). Finally, the resulted cell pellets were resuspended in KRH assay buffer. […] The update reaction was terminated by immediate filtration through Whatman GF/B glass filters (presoaked with 1 mM pyrocatechol for 3 h) followed by three washes with 3 mL of ice-cold KRH buffer containing pyrocatechol using a Brandel cell harvester (model M-48; Brandel Inc., Gaithersburg, MD). Radioactivity was determined as described above.

[2] = biological target: T2, hDAT Y88F/H547A (Homo sapiens, UniProt Q01959, H547A/Y88F); test: [3H]DA uptake in PC12 cells transfected with Y88F/H547A hDAT; type: cell-based
T2 construct: expressed in transfected cells; host or cells: rat PC12 cells (ATCC CRL-1721), pcDNA3.1+
T2 sequence (Q01959 1-620 Y88F/H547A): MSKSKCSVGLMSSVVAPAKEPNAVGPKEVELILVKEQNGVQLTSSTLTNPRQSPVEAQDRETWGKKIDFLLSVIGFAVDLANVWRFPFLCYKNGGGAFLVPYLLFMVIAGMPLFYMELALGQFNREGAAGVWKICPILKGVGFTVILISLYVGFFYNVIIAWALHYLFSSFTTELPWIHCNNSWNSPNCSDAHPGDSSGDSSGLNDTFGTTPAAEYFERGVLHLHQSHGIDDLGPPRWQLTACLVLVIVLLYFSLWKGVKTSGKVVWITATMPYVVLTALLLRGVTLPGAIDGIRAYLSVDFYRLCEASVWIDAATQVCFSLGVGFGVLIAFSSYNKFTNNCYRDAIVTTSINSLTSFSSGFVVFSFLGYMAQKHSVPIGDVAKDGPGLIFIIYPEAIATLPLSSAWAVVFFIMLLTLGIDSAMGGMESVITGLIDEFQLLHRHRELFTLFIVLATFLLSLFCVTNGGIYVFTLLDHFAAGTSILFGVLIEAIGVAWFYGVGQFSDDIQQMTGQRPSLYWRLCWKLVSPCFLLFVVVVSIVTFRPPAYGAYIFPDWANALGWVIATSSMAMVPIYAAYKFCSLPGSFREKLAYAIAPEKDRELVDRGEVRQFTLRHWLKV
Procedure: as §1, §2, §3

[3] = biological target: T1, WT hDAT; test: AMPH-stimulated [3H]DA efflux, WT hDAT; type: cell-based; conditions: AMPH 5–250 µM, fractional release of cellular [3H]DA
Procedure: as §1

[4] = biological target: T3, hDAT Y88F (Homo sapiens, UniProt Q01959, Y88F); test: AMPH-stimulated [3H]DA efflux, Y88F hDAT; type: cell-based; conditions: AMPH 5–250 µM, fractional release of cellular [3H]DA
T3 construct: expressed in transfected cells; host or cells: rat PC12 cells (ATCC CRL-1721), pcDNA3.1+
T3 sequence (Q01959 1-620 Y88F): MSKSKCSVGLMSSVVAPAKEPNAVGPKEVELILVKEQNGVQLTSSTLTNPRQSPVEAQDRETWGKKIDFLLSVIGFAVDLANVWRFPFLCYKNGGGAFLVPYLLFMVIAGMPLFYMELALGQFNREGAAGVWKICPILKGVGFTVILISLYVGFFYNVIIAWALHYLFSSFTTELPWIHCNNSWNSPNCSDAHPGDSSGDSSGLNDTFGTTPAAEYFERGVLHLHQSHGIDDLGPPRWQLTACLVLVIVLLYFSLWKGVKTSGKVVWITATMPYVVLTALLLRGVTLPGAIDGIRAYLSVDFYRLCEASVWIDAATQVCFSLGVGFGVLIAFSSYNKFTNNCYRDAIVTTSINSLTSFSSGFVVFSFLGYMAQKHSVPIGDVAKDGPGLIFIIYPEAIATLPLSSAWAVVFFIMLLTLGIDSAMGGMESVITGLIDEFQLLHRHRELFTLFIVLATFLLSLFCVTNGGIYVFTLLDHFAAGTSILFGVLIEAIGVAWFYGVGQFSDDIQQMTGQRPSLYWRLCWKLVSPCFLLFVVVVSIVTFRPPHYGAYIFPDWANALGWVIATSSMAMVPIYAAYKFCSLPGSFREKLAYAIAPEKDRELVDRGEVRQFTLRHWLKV
Procedure: as §1

[5] = biological target: T4, hDAT Y88A (Homo sapiens, UniProt Q01959, Y88A); test: AMPH-stimulated [3H]DA efflux, Y88A hDAT; type: cell-based; conditions: AMPH 5–250 µM, fractional release of cellular [3H]DA
T4 construct: expressed in transfected cells; host or cells: rat PC12 cells (ATCC CRL-1721)
T4 sequence (Q01959 1-620 Y88A): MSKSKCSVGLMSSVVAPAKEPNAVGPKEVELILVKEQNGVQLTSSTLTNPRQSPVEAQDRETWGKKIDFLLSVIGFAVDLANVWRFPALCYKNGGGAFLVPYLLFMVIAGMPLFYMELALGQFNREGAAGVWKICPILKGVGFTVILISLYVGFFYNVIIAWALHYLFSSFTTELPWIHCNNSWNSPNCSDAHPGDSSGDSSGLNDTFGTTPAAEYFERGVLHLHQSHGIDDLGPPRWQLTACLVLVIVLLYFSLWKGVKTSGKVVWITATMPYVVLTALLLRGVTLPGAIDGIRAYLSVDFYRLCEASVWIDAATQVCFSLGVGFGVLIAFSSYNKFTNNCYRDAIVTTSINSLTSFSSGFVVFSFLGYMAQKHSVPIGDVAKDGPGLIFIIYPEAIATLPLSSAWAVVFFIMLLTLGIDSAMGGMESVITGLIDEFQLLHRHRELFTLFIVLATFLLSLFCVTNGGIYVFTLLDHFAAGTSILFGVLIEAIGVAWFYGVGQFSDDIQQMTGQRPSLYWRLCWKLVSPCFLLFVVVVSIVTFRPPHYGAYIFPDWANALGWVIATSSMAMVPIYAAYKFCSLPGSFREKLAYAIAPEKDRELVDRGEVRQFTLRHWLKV
Procedure: as §1

[6] = biological target: T5, hDAT H547A (Homo sapiens, UniProt Q01959, H547A); test: AMPH-stimulated [3H]DA efflux, H547A hDAT; type: cell-based; conditions: AMPH 5–250 µM, fractional release of cellular [3H]DA
T5 construct: expressed in transfected cells; host or cells: rat PC12 cells (ATCC CRL-1721), pcDNA3.1+
Procedure: as §1

[7] = biological target: T2, hDAT Y88F/H547A; test: AMPH-stimulated [3H]DA efflux, Y88F/H547A hDAT; type: cell-based; parameters: unit not given here; conditions: AMPH 5–250 µM, fractional release of cellular [3H]DA
[8] = biological target: T6, hDAT Y88F/K92M/H547A (Homo sapiens, UniProt Q01959, H547A/K92M/Y88F)
T6 sequence (Q01959 1-620 Y88F/K92M/H547A): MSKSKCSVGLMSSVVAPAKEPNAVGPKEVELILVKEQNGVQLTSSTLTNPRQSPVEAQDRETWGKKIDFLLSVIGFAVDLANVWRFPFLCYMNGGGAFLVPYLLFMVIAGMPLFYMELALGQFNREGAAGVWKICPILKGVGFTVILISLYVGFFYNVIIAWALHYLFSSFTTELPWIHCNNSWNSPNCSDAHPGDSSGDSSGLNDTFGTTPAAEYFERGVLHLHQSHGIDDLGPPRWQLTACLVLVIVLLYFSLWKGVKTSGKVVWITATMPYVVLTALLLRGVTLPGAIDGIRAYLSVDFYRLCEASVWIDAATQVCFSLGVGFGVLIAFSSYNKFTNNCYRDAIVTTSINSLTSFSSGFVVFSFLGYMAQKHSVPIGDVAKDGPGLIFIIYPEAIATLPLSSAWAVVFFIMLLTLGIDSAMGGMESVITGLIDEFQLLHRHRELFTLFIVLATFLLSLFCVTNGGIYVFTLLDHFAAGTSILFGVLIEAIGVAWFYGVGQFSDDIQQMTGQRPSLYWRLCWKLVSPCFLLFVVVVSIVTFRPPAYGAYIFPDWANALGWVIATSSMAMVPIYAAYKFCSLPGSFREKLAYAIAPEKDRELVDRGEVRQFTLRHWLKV
Procedure: as §1
Twenty-four hours after transfection, cells in 24-well plates were washed twice with Krebs-Ringer-HEPES (KRH) buffer (final concentration in mM: 125 NaCl, 5 KCl, 1.5 MgSO4, 1.25 CaCl2, 1.5 KH2PO4, 10 D-glucose, 25 HEPES, 0.1 EDTA, 0.1 pargyline, and 0.1 L-ascorbic acid; pH 7.4) and incubated with nomifensine (10 µM, final concentration) as nonspecific uptake for 10 min at room temperature. […] Cells were then lysed in 500 μL of 1% SDS for an hour and radioactivity was measured using a liquid scintillation counter (Tri-Carb 2900TR; PerkinElmer Life and Analytical Sciences, Waltham, MA).

[9] = biological target: T1, WT hDAT; conditions: 1 µM PMA; cited from earlier work
[10] = biological target: T5, hDAT H547A; conditions: 1 µM PMA; H547A mutant; cited from earlier work
[11] = biological target: T1, WT hDAT; test: [3H]WIN 35,428 binding in intact PC12 cells transfected with WT hDAT
[12] = biological target: T2, hDAT Y88F/H547A; test: [3H]WIN 35,428 binding in intact PC12 cells transfected with Y88F/H547A hDAT; conditions: Zn2+ 10 and 100 µM
[13] = substrate: NCCc1ccc(O)c(O)c1; test: cells, lysate or membranes; conditions: other: PC12 cells, Y88F/H547A; pH 7.4; 37.0 °C

T1 sequence (Q01959 whole entry): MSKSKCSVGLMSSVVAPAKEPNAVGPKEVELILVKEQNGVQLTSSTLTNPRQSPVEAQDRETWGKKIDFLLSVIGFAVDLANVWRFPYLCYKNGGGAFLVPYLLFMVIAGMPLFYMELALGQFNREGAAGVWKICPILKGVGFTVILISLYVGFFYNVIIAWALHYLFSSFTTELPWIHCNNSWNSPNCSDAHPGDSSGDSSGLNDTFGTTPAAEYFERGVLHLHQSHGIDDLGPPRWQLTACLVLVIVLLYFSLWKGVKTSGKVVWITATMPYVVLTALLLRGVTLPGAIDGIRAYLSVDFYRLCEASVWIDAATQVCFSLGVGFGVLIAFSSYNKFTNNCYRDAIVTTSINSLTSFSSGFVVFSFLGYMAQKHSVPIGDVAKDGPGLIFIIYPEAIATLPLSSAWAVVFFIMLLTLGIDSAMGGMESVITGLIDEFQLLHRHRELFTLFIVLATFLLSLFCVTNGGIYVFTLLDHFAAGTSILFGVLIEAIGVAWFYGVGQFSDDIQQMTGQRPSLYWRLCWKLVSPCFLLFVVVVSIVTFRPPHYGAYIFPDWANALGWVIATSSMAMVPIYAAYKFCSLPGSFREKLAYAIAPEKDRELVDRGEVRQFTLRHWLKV
T5 sequence (Q01959 whole entry H547A): as the sequence (Q01959 whole entry) above, with H547A counted along it

## CC(N)Cc1ccccc1 (centres unmarked) [AMPH, amphetamine]
[1]; AMPH 1 µM, WT hDAT
  AMPH-induced decrease of Vmax of [3H]DA uptake vs control: 32%
  Vmax of [3H]DA uptake in presence of AMPH: 7.80 ± 0.97 pmol/min/10^5 cells
[2]; AMPH 1 µM, Y88F/H547A
  AMPH-induced decrease of Vmax of [3H]DA uptake vs control: 42%
  Vmax of [3H]DA uptake in presence of AMPH: 10.9 ± 1.33 pmol/min/10^5 cells
[3]
  Vmax of AMPH-stimulated [3H]DA efflux: 0.42 ± 0.03
[4]
  Vmax of AMPH-stimulated [3H]DA efflux: 0.28 ± 0.06
[5]
  Vmax of AMPH-stimulated [3H]DA efflux: 0.29 ± 0.01
[6]
  Vmax of AMPH-stimulated [3H]DA efflux: 0.22 ± 0.04
[7]
  Vmax of AMPH-stimulated [3H]DA efflux: 0.20 ± 0.03

## NCCc1ccc(O)c(O)c1 [DA, Dopamine]
[1]; AMPH experiment, in the absence of AMPH, WT hDAT
  Vmax of [3H]DA uptake: 11.5 ± 0.94 pmol/min/10^5 cells
[1]; PC12 cells, WT hDAT
  Km: 1.21 ± 0.17 µM
  Vmax of [3H]DA uptake: 12.52 ± 0.68 pmol/min/10^5 cells
[2]; AMPH experiment, in the absence of AMPH, Y88F/H547A
  Vmax of [3H]DA uptake: 18.9 ± 2.81 pmol/min/10^5 cells
[2]; PC12 cells, Y88F/H547A
  Vmax of [3H]DA uptake: 24.06 ± 4.32 pmol/min/10^5 cells
[8]; PC12 cells
  Vmax of [3H]DA uptake: 0.5 ± 0.31 pmol/min/10^5 cells
[8]; read-out: Km of [3H]DA uptake, PC12 cells
  Km: 1.89 ± 1.25 µM

## CCCCCCCCCCCCCC(=O)O[C@@H]1[C@@H](C)[C@@]2(O)[C@@H](C=C(CO)C[C@]3(O)C(=O)C(C)=C[C@@H]23)[C@@H]2C(C)(C)[C@]12OC(C)=O [PMA, phorbol 12-myristate 13-acetate]
[1]
  Reduction of Km of [3H]DA uptake vs control: 53%
  Reduction of Vmax of [3H]DA uptake vs vehicle control: 51%
[2]
  Reduction of Km of [3H]DA uptake vs control: 63%
  Reduction of Vmax of [3H]DA uptake vs vehicle control: 60%
[9]
  Decrease in Vmax of DA uptake vs control: 40%
[10]
  Decrease in Vmax of DA uptake vs control: 60%

## [Cl-].[Cl-].[Zn+2] [Zn^2+, ZnCl2]
[1]; Zn2+ 10 µM, WT hDAT
  Reduction of [3H]DA uptake vs control (absence of Zn2+): ~ 40%
[1]; Zn2+ 100 µM, WT hDAT
  Reduction of [3H]DA uptake vs control (absence of Zn2+): ~ 40%
[2]; Zn2+ 10 µM, Y88F/H547A
  Reduction of [3H]DA uptake vs control (absence of Zn2+): 60%
[2]; Zn2+ 100 µM, Y88F/H547A
  Reduction of [3H]DA uptake vs control (absence of Zn2+): 71%
[11]; Zn2+ 10 µM
  Increase of [3H]WIN35,428 binding vs control (absence of Zn2+): 49%
[11]; Zn2+ 100 µM
  Increase of [3H]WIN35,428 binding vs control (absence of Zn2+): 69%
[12]
  Zn2+-induced increase in [3H]WIN 35,428 binding compared with WT hDAT: significantly diminished

## rTat1–86: recombinant HIV-1 transactivator of transcription protein, residues 1–86 (Diatheva)
[1]; 140 nM rTat1–86, 20 min preincubation, WT hDAT
  Reduction of specific [3H]DA uptake relative to control: 31%
[2]; 140 nM rTat1–86, 20 min preincubation, Y88F/H547A, p > 0.05 vs control
  Tat-induced reduction of [3H]DA uptake relative to control: attenuated

B1: hDAT Y88F/H547A (Homo sapiens; H547A/Y88F) (protein)
chain: MSKSKCSVGLMSSVVAPAKEPNAVGPKEVELILVKEQNGVQLTSSTLTNPRQSPVEAQDRETWGKKIDFLLSVIGFAVDLANVWRFPFLCYKNGGGAFLVPYLLFMVIAGMPLFYMELALGQFNREGAAGVWKICPILKGVGFTVILISLYVGFFYNVIIAWALHYLFSSFTTELPWIHCNNSWNSPNCSDAHPGDSSGDSSGLNDTFGTTPAAEYFERGVLHLHQSHGIDDLGPPRWQLTACLVLVIVLLYFSLWKGVKTSGKVVWITATMPYVVLTALLLRGVTLPGAIDGIRAYLSVDFYRLCEASVWIDAATQVCFSLGVGFGVLIAFSSYNKFTNNCYRDAIVTTSINSLTSFSSGFVVFSFLGYMAQKHSVPIGDVAKDGPGLIFIIYPEAIATLPLSSAWAVVFFIMLLTLGIDSAMGGMESVITGLIDEFQLLHRHRELFTLFIVLATFLLSLFCVTNGGIYVFTLLDHFAAGTSILFGVLIEAIGVAWFYGVGQFSDDIQQMTGQRPSLYWRLCWKLVSPCFLLFVVVVSIVTFRPPAYGAYIFPDWANALGWVIATSSMAMVPIYAAYKFCSLPGSFREKLAYAIAPEKDRELVDRGEVRQFTLRHWLKV
[13]
  Km: 4.25 ± 1.05 µM
